In patent US10172951B2, “Dendrimer based nanodevices for therapeutic and imaging purposes” (priority 2009, dated 2019):
“Also recorded” adds a separate entry of the source.

What was measured:
BV-2 cells [1] = experiment: ROS assay (H2O2, Amplex Red), PEG-NAC conjugates; type: cell-based, mouse; settings: highest concentration 5 mM
Experimental: (§1) (A) BV-2 cells (passage 22) were co-treated with 100 ng/mL of LPS and the indicated concentration of NAC, PEG-NAC conjugate 1 and its corresponding PEG for 72 hours. (B) BV-2 cells were co-treated with 100 ng/mL of LPS and the indicated concentration of NAC, PEG-NAC conjugate 2 and its corresponding PEG for 72 hours. The amount of ROS released into the media was measured using Amplex Red.
(§2) H2O2 released from BV-2 cells was measured using 10-acetyl-3,7-dihydroxyphenoxazine (Amplex Red), following the manufacturer's instructions. Briefly, the procedure for cell culture and drug treatment was the same as described in previous section. The supernatant was mixed with 0.05 U/mL of horseradish peroxidase and 1 μM of Amplex Red in 96-well plates. After 30 min incubation, the fluorescence intensity was measured using spectrofluorometry. Excitation and emission wavelengths were 530 nm and 590 nm.

BV-2 cells [2] = experiment: NO release assay (nitrite, Griess), PEG-NAC conjugates; type: cell-based, mouse; settings: highest concentration 5 mM
Experimental: as §1, with “2” for “2 and”, “Nitrite in culture medium” for “The amount of ROS released into the media”, “Griess reagent system.” for “Amplex Red.”
Production of NO was assayed by measuring the levels of nitrite, the stable NO metabolite, in supernatant. Accumulation of nitrite in supernatant was determined by colorimetric assay with Griess reagent system, which uses sulfanilamide and N-(1-Naphthyl)-ethylene diamine. 100 μL of the supernatant was incubated with 50 μL of Griess reagent 1 (sulfanilamide) and 50 μL of Griess reagent 2 N-(1-Naphthyl)-ethylenediamine for 10 min at room temperature. The absorbance at 540 nm was then measured, and nitrite concentration was determined using a curve calibrated with nitrite standards.

BV-2 cells [3] = experiment: ROS assay in LPS-activated BV-2 cells, 3 hours pre-treatment (Example 18); type: cell-based, mouse; settings: for H2O2 reduction (%): 72 hours LPS following 3 hours treatment; for effect on ROS production: 24 hours LPS following 3 hours pre-treatment, 0.5-8 mM
Experimental: (§3) BV-2 cells (passage 16) were seeded in 24 well plates at 10^5/mL/well and incubated for 24 hours. The medium was removed, and the cells were exposed to 100 ng/mL of LPS and varying concentrations of PAMAM-(COOH)46-(NAC)18 conjugate in 500 μL of serum free medium for 3 hours. The medium was removed again, and 500 μL of fresh serum free medium containing 100 ng/mL of LPS was added and incubated for 24 hours and 72 hours. Control treatment with varying concentrations of free NAC, positive control with 100 ng/mL of LPS induction, but negative control without any LPS induction and treatment were also studied. The culture medium was collected at specific time intervals of 24 hours and 72 hours, and spun at 1500 rpm for 5 min. The supernatant was stored at −80° C. for further assays.
as §2, with “instructions (Alexandre et al., 2006; Min et al., 2003). The” for “instructions. Briefly, the”, “nm respectively.” for “nm.”

BV-2 cells [4] = experiment: NO release (nitrite) assay in LPS-activated BV-2 cells (Example 18); type: cell-based, mouse; settings: for Nitrite reduction (%): 72 hours LPS following 3 hours treatment; for reduction of nitrite release: 24 hours LPS following 3 hours pre-treatment
Experimental: as §3
Production of NO was assayed by measuring the levels of nitrite, the stable NO metabolite, in the culture medium. Accumulation of nitrite in the medium was determined by colorimetric assay with Griess reagent system, which uses sulfanilamide and N-(1-Naphthyl)-ethylene diamine. From the treated cells in the medium, 100 μL of the supernatant was incubated with 50 μL of Griess reagent 1 (sulfanilamide) and 50 μL of Griess reagent 2 N-(1-Naphthyl)-ethylenediamine for 10 min at room temperature. The absorbance at 540 nm was then measured, and nitrite concentration was determined using a calibration curve prepared using nitrite standards.

BV-2 cells [5] = experiment: TNF-α ELISA in LPS-activated BV-2 cells (Example 18); type: cell-based, mouse; settings: 72 hours LPS following 3 hours treatment
Experimental: as §3
The procedure for cell culture and drug treatment was the same as described in previous section. TNF-α secretion was measured using an ELISA kit according to the manufacturer's instructions. In brief, 50 μL of supernatant from each sample was added in 96-well ELISA plates. Biotinylated antibody reagent was applied to each well and the plate was incubated at room temperature for 2 hours. After washing the plate with PBS-Tween 20, diluted streptavidin-HRP was added, and the plate was incubated at room temperature for 30 min. After washing the plate, the premixed TMB substrate solution was added. The plate was developed in the dark for 30 min, and read at 450 nm using a microplate reader. The concentration of TNF-α was calculated using murine rTNF-α as standard.

microglial cells = experiment: Cytotoxicity assay in microglial cells (Example 18); type: cell-based, mouse; settings: concentrations tested in vitro
[6] = system: Mouse microglial cell line (BV-2); experiment: In vitro cytotoxicity, MTT assay (Example 19); settings: 0.5, 2 and 8 mM
Text: In vitro cytotoxicity of the conjugate, dendrimer and NAC, at conditions similar to that used in the efficacy assays, was investigated by MTT assay. Mouse microglial cell line (BV-2) was obtained from Children's Hospital of Michigan Cell Culture Facility. These cells were used because the eventual in vivo applications seek to target microglial cells that become activated as a result of neuroinflammation.
The lipopolysaccharide (LPS) was used to activate the cells for the ROS assay. For the cytotoxicity study, the LPS treatment was continuous for 24 hours. For both groups, the LPS concentration used was 100 ng/ml. Three concentrations of NAC were studied: 0.5 mM, 2 mM and 8 mM. For the conjugate assays, the concentrations used corresponded to equivalent NAC doses of the free drug treatment groups. Similarly, the dendrimer assays were run by using dendrimer concentrations that were equivalent to conjugate treatments. Control groups included cells receiving only LPS and no other treatment and cells with no LPS or other treatment. The proportion of viable cells in the treated group was compared to that of negative control. The cell viability is expressed as mean±SD of three samples per group, and assessed by t-test.

BV-2 cells [7] = experiment: ROS assay, percent reduction in H2O2 in LPS-treated BV-2 cells (Example 19); type: cell-based, mouse; settings: co-treatment with LPS
Experimental: Cells were treated with lipopolysaccharide (LPS) to induce the production of ROS. The cells were treated with LPS (100 ng/ml) and either NAC, PAMAM-S—S-NAC, or free PAMAM-NH2 dendrimers at appropriate concentrations to study the efficacy of the conjugates for reducing the ROS concentrations. In order to quantify the efficacy of conjugates, H2O2 released from BV-2 cells (ROS) was measured using the Amplex Red Hydrogen Peroxide/Peroxidase Assay Kit using previously established procedures.

[8] = Stability (oxidation) of free NAC and free GSH in PBS; type: physicochemical; settings: over 17 hours
Experimental: (§4) The conjugates were also analyzed in the absence of GSH to verify the stability of the disulfide linkage at physiological pH. […] The extent of the release of drug from both dendrimer-NAC conjugates was also analyzed at plasma and intracellular GSH concentrations. The conjugates and the GSH in required amounts were added to PBS solution, and the solution was analyzed at various time intervals by HPLC for up to 17 hours. UV absorbance peak areas were used to determine the concentrations of each of the species in the solution, based on appropriate calibration curves.

[9] = cited from earlier work
[10] = GSH triggered NAC release from PAMAM dendrimer-NAC conjugates (RP-HPLC); type: physicochemical
Experimental: Appropriate amounts of PAMAM-S—S-NAC conjugate were dissolved in release media (Citrate or PBS buffers) to form a solution of 1 mg/ml PAMAM-S—S-NAC. One of the thiol containing molecules (GSH, Cys or BSA) was added to the conjugates to form 10 mM, 2 mM, 0.5 mM 0.1 mM or 2 μM overall thiol group concentrations and to initiate the release of NAC. All samples were run as triplicates for statistical analysis.
As control samples, conjugates were analyzed in both release media in the absence of reducing agents. The solutions were kept at 37° C. and stirred continuously. At predetermined time intervals, […] of samples were withdrawn and immediately analyzed with RP-HPLC and the concentrations of analytes were determined by using appropriate calibrations prepared under same conditions.
Dendrimer NAC conjugates were analyzed for their drug release mechanism and kinetics in the presence of GSH, Cys and BSA. Buffer solutions with pH 5 (Citrate Buffer) and pH 7.4 (Phosphate Buffered Saline) containing various concentrations of these thiol containing moieties were used in release studies.
All GSH concentrations studied were between average plasma (2 μM) and intracellular (2-10 mM) GSH levels. Various GSH concentrations were used in order to determine the GSH dependent release kinetics of the conjugate. The conjugate solutions contained 730 μM NAC in the conjugated form (1 mg/ml PAMAM-S—S-NAC) at the beginning of the release studies. GSH concentration in the release media was compared to the conjugated NAC concentrations in the release solutions for analysis of the release kinetics and mechanism.
The release of NAC from the conjugates was investigated in the presence of GSH at intracellular and extracellular concentrations. It was assumed that the release of NAC would occur by the disulfide exchange reaction. GSH and its oxidized form (GSSG) are responsible for forming the intracellular redox buffer. Intracellularly, GSH takes the role of attacking thiolate moiety and gets oxidized in the process while cleaving the existing disulfide bonds.
as §4

Solubility in PBS/H2O = type: physicochemical
[11] = GSH triggered NAC release from PAMAM dendrimer-NAC conjugates (RP-HPLC); type: physicochemical; settings: absence of GSH, or GSH levels in the blood (20 μM)
[12] = cited from earlier work; remark: listed apart in the source
[13] = 10 mM GSH, PBS pH 7.4, within 1 hour

CC(=O)N[C@@H](CS)C(=O)O [NAC, N-acetyl-L-cysteine, reference compound]
reduction of H2O2 levels (BV-2 cells [1]): 30-40% | reduction of nitrite levels (BV-2 cells [2]): 30-40% | H2O2 reduction (%) (BV-2 cells [3]; 0.5 mM): 5.54 ± 6.38% | H2O2 reduction (%) (BV-2 cells [3]; 2 mM): 22.28 ± 8.33% | H2O2 reduction (%) (BV-2 cells [3]; 8 mM): 41.31 ± 2.33% | effect on ROS production (BV-2 cells [3]): did not affect ROS production | Nitrite reduction (%) (BV-2 cells [4]; 0.5 mM): 10.52 ± 6.43% | Nitrite reduction (%) (BV-2 cells [4]; 2 mM): 34.66 ± 3.22% | reduction of nitrite release (BV-2 cells [4]; 8 mM): ~70% | Nitrite reduction (%) (BV-2 cells [4]; 8 mM): 72.70 ± 5.56% | TNF-α reduction (%) (BV-2 cells [5]; 0.5 mM): 34.98 ± 2.43% | TNF-α reduction (%) (BV-2 cells [5]; 2 mM): 35.13 ± 4.44% | TNF-α reduction (%) (BV-2 cells [5]; 8 mM): 44.57 ± 4.35% | cytotoxicity (microglial cells): relatively nontoxic | cytotoxicity [6]: no cytotoxicity | reduction in H2O2 levels (BV-2 cells [7]; 0.5 mM NAC (equivalent), 24 hours): 6% | reduction in H2O2 levels (BV-2 cells [7]; 0.5 mM NAC (equivalent), 72 hours): 7% | reduction in H2O2 levels (BV-2 cells [7]; 8 mM, 24 hours): 57% | reduction in H2O2 levels (BV-2 cells [7]; 8 mM, 72 hours): 125% | converted to oxidized form [8]: 25% | biological half-life ([9]; in the blood stream): 1.5 hours | bioavailability ([9]; reduced by binding to plasma proteins): less than 8%

PAMAM-CO-GS—S-NAC [PAMAM-(COOH)46-(NAC)18]
NAC payload in GS-S-NAC (NAC-GSH) form [10, 13]: 6% | NAC payload released in free form [10, 13]: 39% | total NAC release [10, 13]: 45% | NAC payload in GS-S-NAC form ([10]; 10 mM GSH, at 17 hours): 6% | free NAC content ([10]; 10 mM GSH, at 17 hours): 46% | NAC release ([10]; PBS buffer without GSH, 17 hours): did not release any of the NAC they carried | NAC payload found as GS-S-NAC or NAC-NAC ([10]; plasma GSH concentration (2 μM)): 1% | release of free NAC ([10]; plasma GSH concentration (2 μM), 17 hours): did not release any detectable levels of free NAC | H2O2 reduction (%) (BV-2 cells [3]; 0.5 mM): 25% | H2O2 reduction (%) (BV-2 cells [3]; 0.5 mM, listed as D-NAC): 30.81 ± 8.08% | H2O2 reduction (%) (BV-2 cells [3]; 2 mM): 51.13 ± 4.93% | H2O2 reduction (%) (BV-2 cells [3]; 8 mM): 68% | H2O2 reduction (%) (BV-2 cells [3]; 8 mM, listed as D-NAC): 68.75 ± 4.14% | effect on ROS production (BV-2 cells [3]): significant inhibition of ROS production at 2 mM and 8 mM | reduction of nitrite release (BV-2 cells [4]; 0.5 mM NAC equivalent): ~61% | Nitrite reduction (%) (BV-2 cells [4]; 0.5 mM): ~60% | Nitrite reduction (%) (BV-2 cells [4]; 0.5 mM, listed as D-NAC): 60.82 ± 6.05% | Nitrite reduction (%) (BV-2 cells [4]; 2 mM): 64.85 ± 5.12% | Nitrite reduction (%) (BV-2 cells [4]; 8 mM): 75.75 ± 1.85% | free drug dosage with comparable activity relative to conjugate dose (8 mM vs 0.5 mM) (BV-2 cells [4]; lowest conjugate dose 0.5 mM NAC): 16 × | TNF-α reduction (%) (BV-2 cells [5]; 0.5 mM): ~67% | TNF-α reduction (%) (BV-2 cells [5]; 0.5 mM, listed as D-NAC): 67.46 ± 3.91% | TNF-α reduction (%) (BV-2 cells [5]; 2 mM): 74.43 ± 3.54% | TNF-α reduction (%) (BV-2 cells [5]; 8 mM): 77.37 ± 3.31% | cytotoxicity (microglial cells): relatively nontoxic; also recorded: non-toxic | Solubility in PBS/H2O (Solubility in PBS/H2O): Highly | drug release [11]: no drug release

N[C@@H](CCC(=O)N[C@@H](CS)C(=O)NCC(=O)O)C(=O)O [GSH, glutathione]
converted to oxidized form [8]: 25% | pKa of thiol group [12]: ~8.8
